Experimental data published in ChEMBL document CHEMBL1201862, “PubChem BioAssay data set” (2004).
Active and inactive are the calls of the source. Rule as the data show it: actives have a measured IC50 and inactives only a lower limit.

Biological target: Envelope glycoprotein gp160 (Human immunodeficiency virus 1, UniProt Q6QLK5)
Assay: cell-free HIV fusion peptide-binding blockers – biochemical, uHTS, fluorescence dequenching, […] (AID 1986)

Envelope glycoprotein gp160, sequence (Q6QLK5 whole entry, the tested form may be a part): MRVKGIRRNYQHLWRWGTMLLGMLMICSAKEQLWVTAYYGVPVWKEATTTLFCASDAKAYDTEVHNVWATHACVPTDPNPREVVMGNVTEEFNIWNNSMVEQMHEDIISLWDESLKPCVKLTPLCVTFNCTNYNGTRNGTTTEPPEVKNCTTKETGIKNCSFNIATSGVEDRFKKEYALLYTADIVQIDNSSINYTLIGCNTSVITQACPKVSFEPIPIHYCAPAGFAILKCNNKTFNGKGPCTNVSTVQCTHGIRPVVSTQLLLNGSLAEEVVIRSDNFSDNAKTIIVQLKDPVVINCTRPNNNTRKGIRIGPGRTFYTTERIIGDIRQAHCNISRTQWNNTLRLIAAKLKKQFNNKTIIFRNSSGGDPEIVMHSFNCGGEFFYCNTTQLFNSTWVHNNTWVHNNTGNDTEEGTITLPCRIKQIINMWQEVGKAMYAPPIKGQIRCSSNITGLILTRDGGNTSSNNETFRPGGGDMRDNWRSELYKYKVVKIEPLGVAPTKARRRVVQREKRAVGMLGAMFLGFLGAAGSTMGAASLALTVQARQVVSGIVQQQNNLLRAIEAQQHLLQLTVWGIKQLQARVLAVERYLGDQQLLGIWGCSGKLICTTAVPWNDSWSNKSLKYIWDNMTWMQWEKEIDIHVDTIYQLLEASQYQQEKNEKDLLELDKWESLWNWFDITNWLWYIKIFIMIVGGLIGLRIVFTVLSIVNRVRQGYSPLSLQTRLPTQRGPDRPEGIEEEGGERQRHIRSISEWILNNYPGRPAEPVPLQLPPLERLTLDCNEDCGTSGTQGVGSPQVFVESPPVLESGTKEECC

CCc1ccc(NC2=NC(=O)/C(=C/c3cc(Br)c(OCC(=O)O)c(OC)c3)S2)cc1
IC50: 14.6 µM (active)

O=C(Nc1ccccc1Cc1ccccc1)c1ccccc1NS(=O)(=O)c1ccc(Cl)s1
IC50: 17 µM (active)

CCS(=O)(=O)C1=NN2C(=N)/C(=C\c3ccc(OS(=O)(=O)c4ccccc4)c(OC)c3)C(=O)N=C2S1
IC50: 17.8 µM (active)

COc1ccc(-c2nn(-c3ccccc3)cc2/C=C2/SC(=S)N(CCCC(=O)O)C2=O)c(C)c1
IC50: 20.2 µM (active)

O=C(O)c1ccccc1N=Nc1c(O)[nH]c2ccc([N+](=O)[O-])cc12
IC50: 23.3 µM (active)
